Measurements as given in article PMC4673163, “Natural paniceins from mediterranean sponge inhibit the multidrug resistance activity of Patched and increase chemotherapy efficiency on melanoma cells” (Oncotarget, 2015).

Target: T1, human Patched (Patched 1; hPatched-MAP) (Homo sapiens, UniProt Q13635)
T1 construct: gene PTCH1; human Patched with MAP tag from pYEP-hPatched-MAP, expressed in Saccharomyces cerevisiae K699; whole yeast, not purified
T1 sequence (Q13635 1-1447): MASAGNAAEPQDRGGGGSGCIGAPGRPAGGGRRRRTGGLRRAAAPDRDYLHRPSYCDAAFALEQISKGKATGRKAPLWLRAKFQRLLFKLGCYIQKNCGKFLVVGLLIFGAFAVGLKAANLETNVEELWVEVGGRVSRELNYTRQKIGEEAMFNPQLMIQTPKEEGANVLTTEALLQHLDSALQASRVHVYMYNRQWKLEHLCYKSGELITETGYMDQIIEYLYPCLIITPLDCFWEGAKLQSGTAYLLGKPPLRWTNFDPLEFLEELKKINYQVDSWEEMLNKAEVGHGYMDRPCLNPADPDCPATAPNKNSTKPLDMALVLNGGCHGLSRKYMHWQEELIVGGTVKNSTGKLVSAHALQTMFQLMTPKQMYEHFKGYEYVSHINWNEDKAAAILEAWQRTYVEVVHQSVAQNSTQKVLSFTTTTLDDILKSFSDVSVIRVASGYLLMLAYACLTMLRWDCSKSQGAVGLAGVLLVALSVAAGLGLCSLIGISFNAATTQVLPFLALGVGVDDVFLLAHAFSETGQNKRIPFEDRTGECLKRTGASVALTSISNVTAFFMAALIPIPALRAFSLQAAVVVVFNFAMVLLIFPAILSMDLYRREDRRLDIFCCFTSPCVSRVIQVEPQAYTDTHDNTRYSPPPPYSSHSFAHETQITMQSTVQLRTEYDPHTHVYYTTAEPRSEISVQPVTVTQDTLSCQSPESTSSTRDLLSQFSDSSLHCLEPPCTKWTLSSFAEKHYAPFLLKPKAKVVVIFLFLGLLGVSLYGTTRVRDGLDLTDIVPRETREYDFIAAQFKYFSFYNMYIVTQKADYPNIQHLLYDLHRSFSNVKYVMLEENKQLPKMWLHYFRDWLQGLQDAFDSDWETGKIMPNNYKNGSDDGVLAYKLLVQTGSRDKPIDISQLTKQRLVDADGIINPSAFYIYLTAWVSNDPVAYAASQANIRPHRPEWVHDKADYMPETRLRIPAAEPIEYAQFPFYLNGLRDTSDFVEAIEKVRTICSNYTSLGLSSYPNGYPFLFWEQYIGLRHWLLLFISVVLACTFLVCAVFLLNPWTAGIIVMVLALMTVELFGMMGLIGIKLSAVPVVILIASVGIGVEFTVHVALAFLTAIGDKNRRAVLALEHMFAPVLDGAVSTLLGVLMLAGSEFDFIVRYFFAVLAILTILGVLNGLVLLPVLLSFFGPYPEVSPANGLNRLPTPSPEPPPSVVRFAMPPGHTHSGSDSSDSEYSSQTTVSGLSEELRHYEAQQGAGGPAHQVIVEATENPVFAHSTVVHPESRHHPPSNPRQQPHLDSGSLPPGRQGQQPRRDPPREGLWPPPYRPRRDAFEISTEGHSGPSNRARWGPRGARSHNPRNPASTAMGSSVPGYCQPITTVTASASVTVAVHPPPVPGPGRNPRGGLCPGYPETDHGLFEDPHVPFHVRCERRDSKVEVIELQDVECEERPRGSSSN
Assay: doxorubicin efflux from de-energized yeast, fluorescence microscopy
Type: cell-based
Settings: read-out: % inhibition of dxr efflux at 10 μM

inhibition at 10 µM: ~40%
Compound: COc1cc(C)c(CC/C(C)=C/Cc2cc(O)ccc2O)c(C)c1C [compound 1, panicein A hydroquinone]
